Results from ChEMBL document CHEMBL4033625, “Novel organophosphorus scaffolds of urease inhibitors obtained by substitution of Morita-Baylis-Hillman adducts with phosphorus nucleophiles” (Eur J Med Chem, 2017).
Calls of active or inactive are those of the source. No cut-off for these calls is given here.

Assays:
[1] = Competitive inhibition of Sporosarcina pasteurii CCM 2056 urease using varying levels of urea as substrate pretreated for 60 mins followed by substrate addition after 10 mins by Lineweaver-Burk plot analysis
[2] = system: Sporosarcina pasteurii; assay: Inhibition of Sporosarcina pasteurii CCM 2056 urease up to 2 mM using urea as substrate pretreated for 60 mins followed by substrate addition after 15 mins by phenol-hypochlorite reagent based colorimetric method
[3] = Competitive inhibition of Sporosarcina pasteurii CCM 2056 urease using varying levels of urea as substrate after 10 mins by Lineweaver-Burk plot analysis
[4] = Inhibition of Sporosarcina pasteurii CCM 2056 urease using urea as substrate after 15 mins by phenol-hypochlorite reagent based colorimetric method
[5] = Inhibition of Sporosarcina pasteurii CCM 2056 urease using urea as substrate pretreated for 60 mins followed by substrate addition after 15 mins by phenol-hypochlorite reagent based colorimetric method
[6] = system: Sporosarcina pasteurii; assay: Ratio of Kinact to Ki for Sporosarcina pasteurii CCM 2056 urease
[7] = Irreversible inhibition of Sporosarcina pasteurii CCM 2056 urease assessed as reduction in ammonia production using urea as substrate pretreated for 60 mins followed by substrate addition measured for 120 mins by Berthelot colorimetric assay
[8] = Irreversible inhibition of Sporosarcina pasteurii CCM 2056 urease assessed as reduction in ammonia production using urea as substrate measured for 120 mins by Berthelot colorimetric assay
[9] = system: Sporosarcina pasteurii; assay: Potency index, ratio of Methyl (Z)-2-{[hydrogen(hydroxy)phosphoryl]methyl}-3-phenylpropenoate Ki to compound Ki for competitive inhibition of Sporosarcina pasteurii CCM 2056 urease using varying levels of urea as substrate pretreated for 60 mins followed by substrate addition measured after 10 mins
[10] = Inhibition of Proteus mirabilis urease
[11] = Slow-binding inhibition of Sporosarcina pasteurii CCM 2056 urease using varying levels of urea as substrate after 120 mins by phenol-hypochlorite reagent based colorimetric method
[12] = Slow-binding inhibition of Sporosarcina pasteurii CCM 2056 urease using varying levels of urea as substrate pretreated for 60 mins followed by substrate addition after 120 mins by phenol-hypochlorite reagent based colorimetric method

Cc1ccc(/C=C(\CCP(=O)(O)O)C(=O)O)cc1
Ki [1]: 66.7 µM

COC(=O)/C(=C/c1ccccc1)CP(=O)(O)CN
inhibition [2]: inactive

O=C(O)/C(=C/c1ccccc1)C[PH](=O)O
Ki [3]: 208 µM
IC50 [4]: 344 µM
IC50 [5]: 234 µM
Ki [1]: 117 µM

C=C(C(=O)OC)C(OC(C)=O)c1ccc(NC(C)=O)cc1 (configuration not stated)
Ratio [6]: 2.78 M⁻¹ s⁻¹
IC50 [7]: 302 µM
IC50 [8]: > 1000 µM

COC(=O)/C(=C/c1ccc(F)cc1)C[PH](=O)O
Ki [3]: 17.9 µM
Ratio Ki [9]: 5 to 7
Ki [1]: 14.5 µM

COC(=O)/C(=C/c1ccccc1)CCP(=O)(O)O
Ki [3]: 3.67 µM
IC50 [4]: 4.28 µM
IC50 [5]: 4.18 µM
Ki [10]: 1.52 µM
Ki [1]: 3.05 µM

COC(=O)/C(=C/c1ccccc1)C[PH](=O)O
Ki [3]: 177 µM
IC50 [4]: 201 µM
IC50 [5]: 104 µM
Ki [1]: 97.5 µM

C=C(C(=O)OC)C(OC(C)=O)c1ccccc1 (configuration not stated)
Ratio [6]: < 1 M⁻¹ s⁻¹
IC50 [7]: 870 µM
IC50 [8]: > 1000 µM

COC(=O)/C(=C/c1ccc(Cl)cc1)CP(=O)(O)O
Ki [3]: 88.9 µM
Ki [1]: 81.2 µM

O=C(O)/C(=C/c1ccccc1)CP(=O)(O)O
Ki [3]: 16.1 µM
IC50 [4]: 44.5 µM
IC50 [5]: 27.8 µM
Ki [1]: 13 to 13.1 µM

Cc1ccc(/C=C(\CP(=O)(O)O)C(=O)O)cc1
Ki [3]: 0.674 µM
Ki [10]: 0.485 µM
Ki [1]: 0.594 µM

COC(=O)/C(=C/c1ccc(Cl)cc1)C[PH](=O)O
Ki [3]: 24 µM
Ratio Ki [9]: 5 to 7
Ki [1]: 16.7 µM

COc1ccc(/C=C(\CP(=O)(O)O)C(=O)O)cc1
Ki [3]: 28.9 µM
Ki [1]: 34.4 µM

Cc1ccc(CC(CP(=O)(O)O)C(=O)O)cc1 (configuration not stated)
Ki [3]: 88 µM
Ki [1]: 90.2 µM

O=C(O)/C(=C/c1ccc(F)cc1)CP(=O)(O)O
Ki [3]: 13.4 µM
Ki [1]: 9.79 µM

COC(=O)/C(=C/c1ccc(OC)cc1)CP(=O)(O)O
Ki [3]: 239 µM
Ki [1]: 229 µM

COC(=O)/C(=C/c1ccc([N+](=O)[O-])cc1)CCP(=O)(O)O
Ki [11]: 54.1 µM
Ki [12]: 362 µM

C=C(C(=O)OC)C(OC(C)=O)c1ccc(C)cc1 (configuration not stated)
Ratio [6]: 5.62 M⁻¹ s⁻¹
IC50 [7]: 331 µM
IC50 [8]: > 1000 µM

Cc1ccc(/C=C(\C[PH](=O)O)C(=O)O)cc1
Ki [1]: 23.4 µM

COC(=O)/C(=C/c1ccc(OC)cc1)CCP(=O)(O)O
Ki [3]: 327 µM
Ki [1]: 292 µM

O=C(O)/C(=C/c1ccccc1)CCP(=O)(O)O
Ki [3]: 55.6 µM
IC50 [4]: 83.4 µM
IC50 [5]: 48.4 µM
Ki [1]: 66.7 µM

O=C(O)/C(=C/c1ccc(Cl)cc1)CP(=O)(O)O
Ki [3]: 19.6 µM
Ki [1]: 16.2 µM

COC(=O)/C(=C/c1ccc(F)cc1)CP(=O)(O)O
Ki [3]: 73.2 µM
Ki [1]: 62.9 µM

CP(=O)(O)C/C(=C\c1ccccc1)C(=O)O
inhibition [2]: inactive

COC(=O)/C(=C/c1ccccc1)CP(=O)(O)O
inhibition [2]: inactive

COC(=O)/C(=C/c1ccccc1)CP(=O)(O)CO
Ki [3]: 327 µM
IC50 [4]: 465 µM
IC50 [5]: 309 µM
Ki [1]: 293 µM

COC(=O)/C(=C/c1ccc(C)cc1)CP(=O)(O)O
Ki [3]: 21.4 µM
Ki [1]: 20.7 µM

COC(=O)/C(=C/c1ccc(NC(C)=O)cc1)CP(=O)(O)O
Ki [3]: 404 µM
Ki [1]: 386 µM

C=C(C(=O)OC)C(OC(C)=O)c1ccc(Cl)cc1 (configuration not stated)
Ratio [6]: 75.3 M⁻¹ s⁻¹
IC50 [7]: 17.7 µM
IC50 [8]: 53.2 µM

COC(=O)/C(=C/c1ccc(F)cc1)CCP(=O)(O)O
Ki [3]: 48.4 µM
Ki [1]: 47.4 µM

C=C(C(=O)OC)C(OC(C)=O)c1ccc([N+](=O)[O-])cc1 (configuration not stated)
Ratio [6]: 2.34 M⁻¹ s⁻¹
IC50 [7]: 224 µM
IC50 [8]: 679 µM

O=C(O)/C(=C/c1ccc(F)cc1)CCP(=O)(O)O
Ki [3]: 32.3 µM
Ki [1]: 27.9 µM

COC(=O)/C(=C/c1ccc(NC(C)=O)cc1)C[PH](=O)O
Ki [3]: 20.6 µM
Ratio Ki [9]: 5 to 7
Ki [1]: 13.4 µM

O=C(O)/C(=C/c1ccccc1)CP(=O)(O)CO
inhibition [2]: inactive

C=C(C(=O)OC)C(OC(C)=O)c1ccc(F)cc1 (configuration not stated)
Ratio [6]: 525 M⁻¹ s⁻¹
IC50 [7]: 4.15 µM
IC50 [8]: 64.2 µM

COC(=O)/C(=C/c1ccccc1)CP(C)(=O)O
inhibition [2]: inactive

COC(=O)/C(=C/c1ccc(C)cc1)C[PH](=O)O
Ki [3]: 41.6 µM
Ratio Ki [9]: 5 to 7
Ki [1]: 23.4 µM

COC(=O)/C(=C/c1ccc(OC)cc1)C[PH](=O)O
Ki [3]: 157 µM
Ki [1]: 149 µM

C=C(C(=O)OC)C(OC(C)=O)c1ccc(OC)cc1 (configuration not stated)
Ratio [6]: < 1 M⁻¹ s⁻¹
IC50 [7]: 1240 µM
IC50 [8]: > 2000 µM

NCP(=O)(O)C/C(=C\c1ccccc1)C(=O)O
Ki [3]: 1420 µM
IC50 [4]: 1510 µM
IC50 [5]: 1340 µM
Ki [1]: 1320 µM

O=C(O)/C(=C/c1ccc([N+](=O)[O-])cc1)CCP(=O)(O)O
Ki [11]: 59.9 µM
Ki [12]: 433 µM
